Results published in patent US10195185B2, “3-(1H-imidazo[4,5-C]pyridin-2-yl)-1H-pyrazolo[4,3-B]pyridines and therapeutic uses thereof” (Samumed, LLC, priority 2015, dated 2019).

Legend:
Assay type in all cases: cell-based
[1] = system: Wnt activity (Wnt-responsive human Sp5 promoter, TCF/LEF binding sites) in SW480 colon carcinoma cells; assay: Wnt activity screening assay: Sp5-Luc luciferase reporter gene in SW480 cells; details: 10-point dose-response from 10 μM, incubated overnight
Excerpt: The screening assay for Wnt activity is described as follows. Reporter cell lines can be generated by stably transducing cancer cell lines (e.g., colon cancer) or primary cells (e.g., IEC-6 intestinal cells) with a lentiviral construct that includes a Wnt-responsive promoter driving expression of the firefly luciferase gene.
SW480 colon carcinoma cells were transduced with a lentiviral vector expressing luciferase with a human Sp5 promoter consisting of a sequence of eight TCF/LEF binding sites. SW480 cells stably expressing the Sp5-Luc reporter gene and a hygromycin resistance gene were selected by treatment with 150 μg/mL of hygromycin for 7 days. These stably transduced SW480 cells were expanded in cell culture and used for all further screening activities. Each compound was dissolved in DMSO as a 10 mM stock and used to prepare compound source plates. Serial dilution (1:3, 10-point dose-response curves starting from 10 μM) and compound transfer was performed using the ECHO 550 (Labcyte, Sunnyvale, Calif.) into 384-well white solid bottom assay plates (Greiner Bio-One) with appropriate DMSO backfill for a final DMSO concentration of 0.1%. For Sp5-Luc reporter gene assays, the cells were plated at 4,000 cells/well in 384-well plates with medium containing 1% fetal bovine serum and incubated overnight at 37° C. and 5% CO2. Following incubation, 20 μl of BrightGlo luminescence reagent (Promega) was added to each well of the 384-well assay plates. The plates were placed on an orbital shaker for 2 min and then luminescence was quantified using the Envision (Perkin Elmer) plate reader. Readings were normalized to DMSO only treated cells, and normalized activities were utilized for EC50 calculations using the dose-response log (inhibitor) vs. response-variable slope (four parameters) nonlinear regression feature available in GraphPad Prism 5.0 (or Dotmatics). For EC50 of >10 μM, the percent inhibition at 10 μM is provided.

[2] = system: IL-6 in human monocyte cell line (THP-1 cells); assay: IL-6 inhibition in LPS-stimulated THP-1 cells (HTRF); details: IL-6 in LPS-stimulated THP-1 cells, HTRF
Experimental: Human monocyte cell line (THP-1 cells; Catalog # TIB-202, ATCC, Manassas, Va.) were cultured in Roswell Park Memorial Institute (RPMI) 1640 Medium (Catalog #21870-100, Buffalo, N.Y.) with 1% L-glutamine, 1% HEPES, 1% Sodium Pyruvate, 2% Sodium Bicarbonate supplemented with 100 units/mL penicillin, 50 μg/mL streptomycin, 2-mercaptoethanol (0.05 mM) [basal medium] and 10% fetal bovine serum (Catalog #16140089, Life Technologies, Carlsbad, Calif.) at 37° C. and 5% CO2.
THP-1 cells were cultured in basal media with 1% FBS for 24 hours before the start of the assay. Each compound was dissolved in DMSO as a 10 mM stock and used to prepare compound source plates. Serial dilution (1:3, 10-point dose-response curves starting from 10 μM) and compound transfer was performed using the ECHO 550 (Labcyte, Sunnyvale, Calif.) into 384-well white low volume assay plates (Greiner Bio-One) with appropriate DMSO backfill for a final DMSO concentration of 0.1%. THP-1 cells were plated at 5000 cells/well in the 384-well plates and incubated at 37° C. for 2 h. 500 ng/mL of LPS was added after 2 hours and cells were incubated for another 22 hours at 37° C. Plates were spun in a centrifuge for 1 minute at […] and a mixture of anti-IL6 XL665, and anti-IL6 Cryptate diluted in reconstitution buffer (Cisbio Inc.) was added to each well. Following incubation for 3 hrs at room temperature, Homogeneous Time-Resolved Fluorescence (HTRF) was measured using the Envision (Perkin Elmer) at 665 nm and […]. The ratio of fluorescence at 665 nm to 620 nm was used as a readout for IL6 quantification. All samples were processed in duplicate. Readings were normalized to DMSO treated cells and normalized activities were utilized for EC50 calculations using the dose-response log (inhibitor) vs. response-variable slope (four parameters) nonlinear regression feature available in GraphPad Prism 5.0 (or Dotmatics). For EC50 of >10 μM, the percent inhibition at 10 μM is provided.

SW480 colon cancer cells = assay: Cell viability assay (CellTiter-Blue), four days; details: Homo sapiens, 96 h, CellTiter-Blue cell viability
Experimental: Representative compounds were screened using the following assay procedure to assess the effect on cell viability as described below.
Each compound was dissolved in DMSO as a 10 mM stock and used to prepare compound source plates. Serial dilution (1:3, 8-point dose-response curves from 10 μM to 0.0045 μM) and compound transfer was performed using the ECHO 550 (Labcyte, Sunnyvale, Calif.) into 96-well clear bottom, black-walled plates (Corning-Costar).
Approximately 2×10^3 SW480 colon cancer cells were seeded into each well and allowed to incubate in the presence or absence of compound for four days at 37° C./5% CO2. Eight replicates of DMSO-treated cells served as controls and cells treated with compound were performed in duplicate.
After incubation, 20 μL of CellTiter-Blue (Promega) was added to each well allowed to incubate for approximately 3 hours. This reagent was a buffered solution which contains resazurin, metabolically active cells were able to reduce rezarurin (blue) into resorufin (pink) which was highly fluorescent. This measured fluorescence was used as a readout for cell viability.
After incubation, the plates were read at Ex 560 nm Em 590 nm (Cytation 3, BioTek). Dose-response curves were generated and EC50 concentration values were calculated using non-linear regression curve fit in the GraphPad Prism (San Diego, Calif.) or Dotmatics' Studies Software (Bishops Stortford, UK). For EC50 of >10 μM, the percent inhibition at 10 μM is provided.

[3] = system: Primary human fibroblasts derived from IPF patients (LL29 cells) treated with TGF-β1; assay: Inhibition of the fibrotic process: αSMA staining in TGF-β1 treated fibroblasts; details: Fibroblast, 96 h, LL29 fibroblasts treated with TGF-β1, 4 days
Excerpt: Representative compounds were screened using primary human fibroblasts (derived from IPF patients) treated with TGF-β1 to determine their ability to inhibit the fibrotic process.
Primary human fibroblasts derived from IPF patients (LL29 cells) [^1Xiaoqiu Liu, et. al., “Fibrotic Lung Fibroblasts Show Blunted Inhibition by cAMP Due to Deficient cAMP Response Element-Binding Protein Phosphorylation”, Journal of Pharmacology and Experimental Therapeutics (2005), 315(2), 678-687; ^2Watts, K. L., et. al., “RhoA signaling modulates cyclin D1 expression in human lung fibroblasts; implications for idiopathic pulmonary fibrosis”, Respiratory Research (2006), 7(1), 88] were obtained from American Type Culture Collection (ATCC) and expanded in F12 medium supplemented with 15% Fetal Bovine Serum and Penicillin/Streptomycin.
Each compound was dissolved in DMSO as a 10 mM stock and used to prepare compound source plates. Serial dilution (1:2, 11-point dose-response curves from 10 μM to 1.87 nM) and compound transfer was performed using the ECHO 550 (Labcyte, Sunnyvale, Calif.) into 384-well clear bottom assay plates (Greiner Bio-One) with appropriate DMSO backfill for a final DMSO concentration of 0.1%. LL29 cells are plated at 1,500 cells/well in 80 μL/well F12 medium supplemented with 1% Fetal Bovine Serum. One hour after addition of the cells, TGF-β1 (Peprotech; 20 ng/mL) was added to the plates to induce fibrosis (ref. 1 and 2 above). Wells treated with TGF-β1 and containing DMSO were used as controls. Cells were incubated at 37° C. and 5% CO2 for 4 days. Following incubation for 4 days, SYTOX green nucleic acid stain (Life Technologies [Thermo Fisher Scientific]) was added to the wells at a final concentration of 1 μM and incubated at room temperature for 30 min. Cells were then fixed using 4% formaldehyde (Electron Microscopy Sciences), washed 3 times with PBS followed by blocking and permeabilization using 3% Bovine Serum Albumin (BSA; Sigma) and 0.3% Triton X-100 (Sigma) in PBS. Cells were then stained with antibody specific to α-smooth muscle actin (αSMA; Abcam) (ref. 1 and 2 above) in 3% Bovine Serum Albumin (BSA; Sigma) and 0.3% Triton X-100 (Sigma) in PBS, and incubated overnight at 4° C. Cells were then washed 3 times with PBS, followed by incubation with Alexa Flor-647 conjugated secondary antibody (Life Technologies [Thermo Fisher Scientific]) and DAPI at room temperature for 1 hour. Cells were then washed 3 times with PBS and plates were sealed for imaging. αSMA staining was imaged by excitation at 630 nm and emission at 665 nm and quantified using the Compartmental Analysis program on the CellInsight CX5 (Thermo Scientific). Dead or apoptotic cells were excluded from analysis based on positive SYTOX green staining. % of total cells positive for αSMA were counted in each well and normalized to the average of 11 wells treated with TGF-β1 on the same plate using Dotmatics' Studies Software. The normalized averages (fold change over untreated) of 3 replicate wells for each compound concentration were used to create dose-responses curves and EC50 values were calculated using non-linear regression curve fit in the Dotmatics' Studies Software. For EC50 of >10 μM, the percent inhibition at 10 μM is provided.

Structure (SMILES)	EC50 [1] [nM]	EC50 [2] [nM]	EC50 (SW480 colon cancer cells) [nM]	EC50 [3] [nM]
FC1(F)CCN(Cc2cncc(-c3ccc4[nH]nc(-c5nc6c(N7CCCCC7)nccc6[nH]5)c4n3)c2)C1 [Compound 194, 5-(5-((3,3-Difluoropyrrolidin-1-yl)methyl)pyridin-3-yl)-3-(4-(piperidin-1-yl)-1H-imidazo[4,5-c]pyridin-2-yl)-1H-pyrazolo[4,3-b]pyridine]	3390	2490	1960	2240
CN1CCN(c2nccc3[nH]c(-c4n[nH]c5ccc(-c6cncc(OC7CCCCC7)c6)nc45)nc23)CC1 [Compound 639, 5-(5-(Cyclohexyloxy)pyridin-3-yl)-3-(4-(4-methylpiperazin-1-yl)-1H-imidazo[4,5-c]pyridin-2-yl)-1H-pyrazolo[4,3-b]pyridine]	2670	3420	2420	2610
c1ccc(-c2ccc3[nH]nc(-c4nc5cnccc5[nH]4)c3n2)nc1 [Compound 280, 3-(1H-Imidazo[4,5-c]pyridin-2-yl)-5-(pyridin-2-yl)-1H-pyrazolo[4,3-b]pyridine]	1320	1900	5720	7230
C1=C(c2ccc3[nH]nc(-c4nc5c(-c6ccc7c(c6)OCO7)nccc5[nH]4)c3n2)CCNC1 [Compound 1109, 3-(4-(Benzo[d][1,3]dioxol-5-yl)-1H-imidazo[4,5-c]pyridin-2-yl)-5-(1,2,3,6-tetrahydropyridin-4-yl)-1H-pyrazolo[4,3-b]pyridine]	652	154	3410	3850
c1csc(-c2nccc3[nH]c(-c4n[nH]c5ccc(-c6ccncc6)nc45)nc23)c1 [Compound 354, 5-(Pyridin-4-yl)-3-(4-(thiophen-2-yl)-1H-imidazo[4,5-c]pyridin-2-yl)-1H-pyrazolo[4,3-b]pyridine]	1070	9100	1050	792
c1ccc(CNCc2cncc(-c3ccc4[nH]nc(-c5nc6c(-c7cccnc7)nccc6[nH]5)c4n3)c2)cc1 [Compound 108, N-Benzyl-1-(5-(3-(4-(pyridin-3-yl)-1H-imidazo[4,5-c]pyridin-2-yl)-1H-pyrazolo [4,3-b]pyridin-5-yl)pyridin-3-yl)methanamine]	6780	123	2580	9060
Oc1cncc(-c2ccc3[nH]nc(-c4nc5c(N6CCCCC6)nccc5[nH]4)c3n2)c1 [Compound 613, 5-(3-(4-(Piperidin-1-yl)-1H-imidazo[4,5-c]pyridin-2-yl)-1H-pyrazolo[4,3-b]pyridin-5-yl)pyridin-3-ol]	2200	3980	9370	9460
CN(C)CCNc1cc(F)cc(-c2nccc3[nH]c(-c4n[nH]c5ccc(-c6cncc(OCc7ccccc7)c6)nc45)nc23)c1 [Compound 790, N^1-(3-(2-(5-(5-(Benzyloxy)pyridin-3-yl)-1H-pyrazolo[4,3-b]pyridin-3-yl)-1H-imidazo[4,5-c]pyridin-4-yl)-5-fluorophenyl)-N^2,N^2-dimethylethane-1,2-diamine]	1110	38	1570	3170
Cc1ncc(-c2ccc3[nH]nc(-c4nc5c(-c6cccc(F)c6)nccc5[nH]4)c3n2)n1C [Compound 509, 5-(1,2-Dimethyl-1H-imidazol-5-yl)-3-(4-(3-fluorophenyl)-1H-imidazo[4,5-c]pyridin-2-yl)-1H-pyrazolo[4,3-b]pyridine]	36	437	688	202
Cc1ncc(-c2ccc3[nH]nc(-c4nc5c(-c6cc(F)cc(NCCN(C)C)c6)nccc5[nH]4)c3n2)n1C [Compound 781, N^1-(3-(2-(5-(1,2-Dimethyl-1H-imidazol-5-yl)-1H-pyrazolo[4,3-b]pyridin-3-yl)-1H-imidazo[4,5-c]pyridin-4-yl)-5-fluorophenyl)-N^2,N^2-dimethylethane-1,2-diamine]	1880	3910	6550	3100
